pEC50: −log10 of the molar value. Activity calls are given as the source filed them. No cut-off for these calls is given here.
Columns and labels:
[1] = target: T1, Glucagon-like peptide 2 receptor (Homo sapiens) (UniProt O95838); experiment: Positive ago-allosteric modulation of GLP2R overexpressed in human SE302 cells assessed as placental alkaline phosphatase activation at 6.3 uM measured on day 3 by Alamar Blue assay relative to 10 pM GLP2; format: cell-based
T1 sequence (whole entry): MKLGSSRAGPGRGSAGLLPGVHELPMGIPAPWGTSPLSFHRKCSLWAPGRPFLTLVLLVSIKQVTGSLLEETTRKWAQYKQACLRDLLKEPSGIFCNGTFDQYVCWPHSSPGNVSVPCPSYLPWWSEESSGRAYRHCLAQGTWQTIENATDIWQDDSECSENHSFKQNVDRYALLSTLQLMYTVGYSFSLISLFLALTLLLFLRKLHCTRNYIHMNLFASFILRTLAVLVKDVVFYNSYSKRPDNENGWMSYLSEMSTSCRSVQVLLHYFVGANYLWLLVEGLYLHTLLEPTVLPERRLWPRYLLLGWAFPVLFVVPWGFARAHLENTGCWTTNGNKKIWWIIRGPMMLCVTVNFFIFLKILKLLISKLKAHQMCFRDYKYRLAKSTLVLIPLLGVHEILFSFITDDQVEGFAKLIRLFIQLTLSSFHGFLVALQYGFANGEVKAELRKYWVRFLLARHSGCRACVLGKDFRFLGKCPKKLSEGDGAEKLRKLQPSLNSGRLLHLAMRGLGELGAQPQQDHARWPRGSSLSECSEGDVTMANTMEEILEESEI

[2] = target: T1, Glucagon-like peptide 2 receptor (Homo sapiens); experiment: Positive ago-allosteric modulation of GLP2R overexpressed in human SE302 cells assessed as placental alkaline phosphatase activation at 6.3 uM measured on day 3 by Alamar Blue assay relative to 100 pM GLP2; format: cell-based
[3] = target: T1, Glucagon-like peptide 2 receptor (Homo sapiens); experiment: Positive ago-allosteric modulation of GLP2R overexpressed in human SE302 cells assessed as placental alkaline phosphatase activation at 25 uM measured on day 3 by Alamar Blue assay relative to 10 pM GLP2; format: cell-based
[4] = target: T1, Glucagon-like peptide 2 receptor (Homo sapiens); experiment: (§1) Positive ago-allosteric modulation of GLP2R overexpressed in human SE302 cells assessed as placental alkaline phosphatase activation measured on day 3 by Alamar Blue assay; format: cell-based
[5] = target: T1, Glucagon-like peptide 2 receptor (Homo sapiens); experiment: Positive ago-allosteric modulation of GLP2R overexpressed in human SE302 cells assessed as placental alkaline phosphatase activation at 50 uM measured on day 3 by Alamar Blue assay relative to 10 pM GLP2; format: cell-based
[6] = target: T1, Glucagon-like peptide 2 receptor (Homo sapiens); experiment: Positive ago-allosteric modulation of GLP2R overexpressed in human SE302 cells assessed as placental alkaline phosphatase activation at 12.5 uM measured on day 3 by Alamar Blue assay relative to 100 pM GLP2; format: cell-based
[7] = target: T1, Glucagon-like peptide 2 receptor (Homo sapiens); experiment: Positive ago-allosteric modulation of GLP2R overexpressed in human SE302 cells assessed as placental alkaline phosphatase activation at 25 uM measured on day 3 by Alamar Blue assay relative to 100 pM GLP2; format: cell-based
[8] = target: T1, Glucagon-like peptide 2 receptor (Homo sapiens); experiment: Positive ago-allosteric modulation of GLP2R overexpressed in human SE302 cells assessed as reduction of GLP2-induced cAMP level at 3 to 10 uM after 30 mins; format: functional, cell-based
[9] = target: T1, Glucagon-like peptide 2 receptor (Homo sapiens); experiment: Positive ago-allosteric modulation of GLP2R overexpressed in human SE302 cells assessed as placental alkaline phosphatase activation measured on day 3 by Alamar Blue assay relative to GLP2; format: cell-based
[10] = target: T2, Glucagon-like peptide 2 receptor (Homo sapiens, UniProt O95838); experiment: as §1; format: cell-based
T2 sequence (O95838 whole entry): T1 sequence (whole entry)

[11] = target: T1, Glucagon-like peptide 2 receptor (Homo sapiens); experiment: Displacement of [125I]-Bolton Hunter labeled GLP2 from GLP2R overexpressed in human SE302 cell membranes at 1 uM after 2 hrs by gamma counter
[12] = target: T1, Glucagon-like peptide 2 receptor (Homo sapiens); experiment: Displacement of [125I]-Bolton Hunter labeled GLP2 from GLP2R overexpressed in human SE302 cell membranes at 10 uM after 2 hrs by gamma counter
[13] = target: T1, Glucagon-like peptide 2 receptor (Homo sapiens); experiment: Positive ago-allosteric modulation of GLP2R overexpressed in human SE302 cells assessed as increase in (Z)-methyl 2-(2-(2,5-dichlorothiophen-3-yl)-2-(hydroxyimino)ethylthio)benzoate-induced placental alkaline phosphatase activation measured on day 3 by Alamar Blue assay; format: cell-based
[14] = target: T1, Glucagon-like peptide 2 receptor (Homo sapiens); experiment: Positive ago-allosteric modulation of GLP2R overexpressed in human SE302 cells assessed as placental alkaline phosphatase activation at 50 uM measured on day 3 by Alamar Blue assay relative to 100 pM GLP2; format: cell-based
[15] = target: T1, Glucagon-like peptide 2 receptor (Homo sapiens); experiment: Displacement of [125I]-Bolton Hunter labeled GLP2 from GLP-2R overexpressed in human SE302 cell membranes up to 100 uM after 2 hrs by gamma counter
[16] = target: T1, Glucagon-like peptide 2 receptor (Homo sapiens); experiment: Positive ago-allosteric modulation of GLP2R overexpressed in human SE302 cells assessed as increase in GLP2 (11 to 33)-induced placental alkaline phosphatase activation at 10 uM measured on day 3 by Alamar Blue assay relative to GLP2; format: cell-based
[17] = target: T1, Glucagon-like peptide 2 receptor (Homo sapiens); experiment: Positive ago-allosteric modulation of GLP2R overexpressed in human SE302 cells assessed as GLP2 (3 to 33)-induced placental alkaline phosphatase activation at 10 uM measured on day 3 by Alamar Blue assay relative to GLP2; format: cell-based

## COc1c(Br)cc(/C(CSc2ccccc2C(F)(F)F)=N/O)cc1C(C)(C)C
[1]
  %max: 714%
[2]
  %max: 97%

## O/N=C(\CSc1ccccc1)c1cccc(C(F)(F)F)c1
[3]
  %max: 95%

## COc1ccccc1SC/C(=N\O)c1cc(Cl)sc1Cl
[4]
  Activity: inactive
[5]
  %max: 78%

## CC(C)(C)c1ccccc1SC/C(=N\O)c1cc(Cl)sc1Cl
[6]
  %max: 40%

## O/N=C(\CSC1CCCCC1)c1cc(Cl)sc1Cl
[4]
  Activity: inactive

## O/N=C(\CSCc1ccccc1)c1cc(Cl)sc1Cl
[4]
  Activity: inactive

## Cc1cccc(C)c1SC/C(=N\O)c1cc(Cl)sc1Cl
[7]
  %max: 10%

## O/N=C(\CSc1cccc(F)c1)c1cc(Cl)sc1Cl
[7]
  %max: 73%

## O/N=C(\CSc1ccccc1Cl)c1cc(Cl)sc1Cl
[7]
  %max: 60%

## O/N=C(\CSc1ccccc1)c1cccc(O)c1
[4]
  Activity: inactive

## O/N=C(\CSc1ccncc1-c1ccccc1)c1cc(Cl)sc1Cl
[6]
  %max: 102%

## COc1cccc(SC/C(=N\O)c2cc(Cl)sc2Cl)c1
[3]
  %max: 144%
[4]
  Activity: inactive

## H-NTILDNLAARDFINWLIQTKITD-OH
[8]
  Activity: Dose-dependent effect
[9]
  %max: 11%
[10]
  pEC50: 5.89
[11]
  Activity: 88%
[12]
  Activity: 100%
[13]
  Activity: Dose-dependent effect

## CCc1cnccc1SC/C(=N\O)c1cc(Cl)sc1Cl
[7]
  %max: 59%

## O/N=C(\CSc1cccs1)c1cc(Cl)sc1Cl
[7]
  %max: 40%

## CC(C)n1nc(C(F)(F)F)cc1/C(CSc1ccccc1)=N/O
[7]
  %max: 87%

## CCC(C)n1nc(C(F)(F)F)cc1/C(CSc1ccccc1)=N/O (stereo not drawn)
[6]
  %max: 110%

## O/N=C(\CSc1ccccc1)c1cccc(Br)c1
[3]
  %max: 42%

## Cc1ccc(SC/C(=N\O)c2cc(Cl)sc2Cl)c(C)c1
[6]
  %max: 58%

## O/N=C(\CSc1cccnc1)c1cc(Cl)sc1Cl
[14]
  %max: 27%

## COc1c(N(C)C)cc(/C(CSc2ccccc2)=N/O)cc1C(C)(C)C
[6]
  %max: 43%

## O/N=C(\CSc1cccc(Cl)c1)c1cc(Cl)sc1Cl
[7]
  %max: 53%

## H-DGSFSDEMNTILDNLAARDFINWLIQTKITD-OH [listing 1 of 2 here]
[9]
  %max: 59%

## O/N=C(\CSc1ccncc1)c1cc(Cl)sc1Cl
[15]
  Activity: inactive
[14]
  %max: 55%

## Cc1cc(F)ccc1SC/C(=N\O)c1cc(Cl)sc1Cl
[7]
  %max: 124%

## CCc1ccccc1SC/C(=N\O)c1cc(Cl)sc1Cl
[7]
  %max: 63%

## O/N=C(\CSc1ccccc1)c1cc(C(F)(F)F)nn1C1CCCC1
[7]
  %max: 127%

## CCSC/C(=N\O)c1cc(Cl)sc1Cl
[4]
  Activity: inactive

## O/N=C(\CSc1ccccc1C(F)(F)F)c1cc(Cl)sc1Cl
[6]
  %max: 58%

## H-DGSFSDEMNTILDNLAARDFINWLIQTKITD-OH [listing 2 of 2 here]
[10]
  pEC50: 7.51

## Cc1cc(/C(CSc2ccccc2)=N/O)n(C)n1
[4]
  Activity: inactive

## O/N=C(\CSc1ccccc1)c1cccc(F)c1
[3]
  %max: 54%

## O/N=C(\CSc1ccc(F)cc1)c1cc(Cl)sc1Cl
[7]
  %max: 134%
[3]
  %max: 945%

## O/N=C(\CSc1ccncc1C(F)(F)F)c1cc(Cl)sc1Cl
[7]
  %max: 143%

## O/N=C(\CSc1ccc(C(F)(F)F)cc1)c1cc(Cl)sc1Cl
[7]
  %max: 16%

## O/N=C(\CSc1ccccc1C(F)(F)F)c1cc(C(F)(F)F)nn1C1CCCC1
[1]
  %max: 610%
[2]
  %max: 83%

## Cc1ccccc1SC/C(=N\O)c1cc(Cl)sc1Cl
[7]
  %max: 90%

## COc1c(Br)cc(/C(CSc2ccccc2)=N/O)cc1C(C)(C)C
[6]
  %max: 43%

## CC(C)Oc1cccc(/C(CSc2ccccc2)=N/O)c1
[7]
  %max: 14%

## O/N=C(\CSc1ccccc1)c1cc(C(F)(F)F)nn1C1CCC1
[7]
  %max: 99%

## Cc1ccc(SC/C(=N\O)c2cc(Cl)sc2Cl)cc1
[14]
  %max: 3%
[5]
  %max: 65%

## N#Cc1cccc(/C(CSc2ccccc2)=N/O)c1
[5]
  %max: 8%

## Cn1nc(C(C)(C)C)cc1/C(CSc1ccccc1)=N/O
[4]
  Activity: inactive

## CCCn1nc(C(F)(F)F)cc1/C(CSc1ccccc1)=N/O
[7]
  %max: 71%

## CC(C)(C)c1cc(/C(CSc2ccccc2)=N/O)cc(C(C)(C)C)c1
[7]
  %max: 31%
[16]
  Activity: Active
[17]
  Activity: Active

## O/N=C(\CSc1ccccc1)c1cc(C(F)(F)F)cc(C(F)(F)F)c1
[7]
  %max: 29%
[3]
  %max: 517%

## Cc1cccc(SC/C(=N\O)c2cc(Cl)sc2Cl)c1C
[7]
  %max: 54%

## CCC(CC)n1nc(C(F)(F)F)cc1/C(CSc1ccccc1)=N/O
[6]
  %max: 31%

## O/N=C(\CSCCCc1ccccc1)c1cc(Cl)sc1Cl
[4]
  Activity: inactive

## Cc1ccc(C)c(SC/C(=N\O)c2cc(Cl)sc2Cl)c1
[6]
  %max: 40%

## Cn1nc(-c2ccccc2)cc1/C(CSc1ccccc1)=N/O
[7]
  %max: 14%

## O/N=C(\CSc1ccccc1)c1ccccc1
[5]
  %max: 4%

## COc1cccc(/C(CSc2ccccc2)=N/O)c1
[7]
  %max: 8%

## O/N=C(\CSc1ccccc1F)c1cc(Cl)sc1Cl
[7]
  %max: 80%

## Cn1nc(C(F)(F)F)cc1/C(CSc1ccccc1)=N/O
[7]
  %max: 13%
[4]
  Activity: inactive

## COc1ccc(SC/C(=N\O)c2cc(Cl)sc2Cl)cc1
[5]
  %max: 217%

## Cc1cccc(SC/C(=N\O)c2cc(Cl)sc2Cl)c1
[7]
  %max: 30%

## COc1c(C(=O)O)cc(/C(CSc2ccccc2)=N/O)cc1C(C)(C)C
[4]
  Activity: inactive

## O=C(O)c1ccccc1SC/C(=N\O)c1cc(Cl)sc1Cl
[4]
  Activity: inactive

## COc1c(C(=O)OC(C)(C)C)cc(/C(CSc2ccccc2)=N/O)cc1C(C)(C)C
[6]
  %max: 12%

## Cc1cnccc1SC/C(=N\O)c1cc(Cl)sc1Cl
[14]
  %max: 44%

## CC(C)(C)OC(=O)c1cc(/C(CSc2ccccc2)=N/O)cc(C(C)(C)C)c1O
[7]
  %max: 4%

## COC(=O)c1ccccc1SC/C(=N\O)c1cc(Cl)sc1Cl
[7]
  %max: 39%
[3]
  %max: 284%

## CC(C)(C)SC/C(=N\O)c1cc(Cl)sc1Cl
[4]
  Activity: inactive

## Cn1nc(C2CC2)cc1/C(CSc1ccccc1)=N/O
[4]
  Activity: inactive

## O/N=C(\CSc1ccc(Cl)cc1)c1cc(Cl)sc1Cl
[7]
  %max: 17%
[3]
  %max: 293%

## O/N=C(\CSc1ccccn1)c1cc(Cl)sc1Cl
[4]
  Activity: inactive

## COc1cccc(SC/C(=N\O)c2cc(Cl)sc2Cl)c1C
[7]
  %max: 31%

## CCCOc1cccc(/C(CSc2ccccc2)=N/O)c1
[7]
  %max: 9%

## O/N=C(\CSc1ccccc1)c1cc(C(F)(F)F)nn1Cc1ccccc1
[6]
  %max: 59%

## CC(C)(C)c1cccc(/C(CSc2ccccc2)=N/O)c1
[7]
  %max: 18%
[3]
  %max: 244%

## O/N=C(\CSc1cccc2ccccc12)c1cc(Cl)sc1Cl
[7]
  %max: 23%

## O/N=C(\CSc1ccccc1)c1cccc(Cl)c1
[3]
  %max: 46%

## O/N=C(\CSc1ccccc1-c1ccccc1)c1cc(Cl)sc1Cl
[6]
  %max: 84%

Reference: ChEMBL document CHEMBL2176875, “Ago-allosteric modulators of human glucagon-like peptide 2 receptor” (Bioorg Med Chem Lett, 2012)
